Where “and” joins values, the source holds several entries; their conditions need not be identical. Equal entries are not always repeated. Square brackets hold non-standard residues; d marks the D form. Peptide text beside a SMILES is read from it.

For data set [1], the system named is cGAS-knockout Hela cells reconstituted with EGFP-hcGAS-FL. Description: Live-cell imaging of cGAS-DNA puncta. It is filed as cell-based, human. The conditions noted are these: 10 μM, 4 h. As to the method: cGAS-knockout Hela cells reconstituted with EGFP-tagged full-length human cGAS (EGFP-hcGAS-FL) were obtained by transfecting pEGFP-C2-hcGAS-FL recombinant plasmid, and were seeded into 20-mm glass-bottom cell culture dish (NEST). Cell culture media was replaced with fresh medium for 1 h, then cells were stimulated by transfection of ISD by lipofectamine 2000 (Invitrogen) after DMSO or XQ2 (10 μM) treatment for the indicated time. The cells were rinsed three times with PBS, and live-cell imaging was performed by using Nikon A1R+ confocal microscope with a 40× oil objective, Nikon A1 camera, and X-Cite 120LED laser. Images were analyzed by FIJI software.

The subject of a further data set is THP1 cells. The data set can be described thus: ELISA of IFN-β and CXCL10 after HSV-1 infection. The format is cell-based, human. As to the method:
THP1 cells were seeded into 96-well plates, and cell culture supernatants were collected and analyzed by ELISA kits for human IFNβ levels (R&D Systems, Cat# DY814-05) and human CXCL10 levels (R&D Systems, Cat# DY266-05) according to the manufacturer’s instructions. Mice serum was collected and analyzed by ELISA kits for mouse IFNβ levels (R&D Systems, Cat# DY8234-05) and mouse CXCL10 levels (R&D Systems, Cat# DY466-05) according to the manufacturer’s protocols.
For orientation: An ELISA detects its analyte on a solid surface through an enzyme-linked reagent.

In a further data set the target is T1, hcGAS-FL and Cy3-ISD (Homo sapiens, UniProt Q8N884).
T1 construct: The gene encoding full-length human cGAS (hcGAS-FL); 6xHis-SUMO (N, cleaved yes); made in house; host or cells: Escherichia coli BL21 (DE3)
The data set can be described thus: In vitro phase separation assay (cGAS-DNA condensates). The conditions noted are these: for Droplets (%), Fig. S6b: hcGAS-FL 100nM, Cy3-ISD 100nM; for Droplets (%), Fig. 4e: hcGAS-FL 500 nM, Cy3-ISD 500 nM; for Droplets (%), Fig. S6d: hcGAS-FL 1 μM, Cy3-ISD 1 μM. The format is biochemical. As to the method:
Purified hcGAS-FL and Cy3-labeled DNA (Cy3-ISD) with the indicated concentrations were mixed with DMSO (0.1%) or indicated doses of XQ2 in 96-well plates (JingAn Biological) pre-coated with 20 mg/ml BSA (Sigma). Mixtures were incubated in buffer (20 mM Tris-HCl, pH 7.5, 150 mM NaCl and 1 mg/ml BSA) with standing at 37 °C in a total reaction volume of 50 μL. Phase-separated droplets were imaged at the indicated time by using Nikon A1R+ confocal microscope with a 60× oil objective, Nikon A1 camera, and X-Cite 120LED laser. Images were analyzed using FIJI software. The number of droplets was measured as the percentage of the imaging area occupied by Cy3-labeled components, and was plotted using GraphPad Prism 8.

Data set [2] concerns THP1-Lucia ISG cells infected by HSV-1. The data set can be described thus: Luciferase reporter assay, HSV-1 infection. The format is cell-based, human. Particulars: for luciferase activity, Fig. 5c: XQ2 10 μM. As to the method: THP1-Lucia ISG cells (Invivogen) were seeded into a 96-well plate and incubated with RU.521 (Invivogen) or XQ2 for the indicated time, and then transfected with dsDNA by lipofectamine 2000 (Invitrogen) or infected by HSV-1 with the indicated titer for 24 h. The supernatant was collected and 50 μL QUANTI-Luc Luciferase reagent (Invivogen) was added to 20 μL supernatants per well, and luciferase luminescence was detected by a microplate reader (BioTek Synergy H1) immediately.

The nature of another data set: in vivo. The conditions noted are these: C57BL/6, mouse, iv, 10 mg/kg.
The subject of data set [3] is Trex1 knockdown L929 cells. Description: qPCR of Ifnb1 and Cxcl10 mRNA after Trex1 siRNA. The format is cell-based, mouse. As to the method:
The indicated cells were stimulated with either ISD (Sangon Biotech), HSV-1 (Provided by Dr. Zhengfan Jiang), HSV60mer (Sangon Biotech), SATE-cddA[70], 2’3’-cGAMP (Invivogen, Cat# tlrl-nacga23-1), ADU-S100 (MedChemExpress, Cat# HY-12885A) or Poly(I:C) (Invivogen, Cat# tlrl-pic) after XQ2 or XQ2B treatment. Total RNA was isolated from indicated cells that incubated with the drugs for indicated time or mice tissues by using NucleoZOL reagent (MACHEREY-NAGEL) according to the manufacturer’s instructions. The quantifications of mRNA levels were carried out by real-time PCR using a PerfectStart® Uni RT&qPCR Kit (TransGen Biotech) on the QuantStudio 5 qPCR machine (Applied Biosystems). Samples were carried out in triplicate and the target CT values were normalized to GAPDH CT values. Primers of qPCR used in this study can be found in Supplementary Table S2.
siRNA of TREX1 (siTREX1) was transfected into the indicated cells by Lipofectamine RNAiMAX (Invitrogen) according to the manufacturer’s instructions. Human siTREX1, mouse siTrex1 and negative control siRNAs were purchased from Sangon Biotech. The sequences of siRNAs oligonucleotides can be found in Supplementary Table S2.
Supplementary Fig. 9. XQ2B reduces interferon expression induced by Trex1 deficiency. […]
Trex1 knockdown L929 cells were treated with DMSO or XQ2B (20 μM) for 24 h, and the mRNA levels of Trex1 (c),
Ifnb1 and Cxcl10 (d) mRNA was measured by qPCR. (c) p < 0.0001, (d) p = 0.003 (Ifnb1); p = 0.0003 (Cxcl10). (e, f) […]
Source data are provided as a Source Data file.
(In general: In qPCR the cycle at which signal appears reflects the starting amount.)

Data set [4] can be described thus: Pharmacokinetics after intravenous administration. The conditions noted are these: C57BL/6, mouse, whole blood, 10 mg/kg.
Procedure: (§1) Whole blood samples were collected in EDTA-K2 surface-coated tubes at 0.083, 0.25, 0.5, 1, 2, 5, 7, 24 h post administration. The results were analyzed by LC-MS.

T1 sequence (Q8N884 whole entry): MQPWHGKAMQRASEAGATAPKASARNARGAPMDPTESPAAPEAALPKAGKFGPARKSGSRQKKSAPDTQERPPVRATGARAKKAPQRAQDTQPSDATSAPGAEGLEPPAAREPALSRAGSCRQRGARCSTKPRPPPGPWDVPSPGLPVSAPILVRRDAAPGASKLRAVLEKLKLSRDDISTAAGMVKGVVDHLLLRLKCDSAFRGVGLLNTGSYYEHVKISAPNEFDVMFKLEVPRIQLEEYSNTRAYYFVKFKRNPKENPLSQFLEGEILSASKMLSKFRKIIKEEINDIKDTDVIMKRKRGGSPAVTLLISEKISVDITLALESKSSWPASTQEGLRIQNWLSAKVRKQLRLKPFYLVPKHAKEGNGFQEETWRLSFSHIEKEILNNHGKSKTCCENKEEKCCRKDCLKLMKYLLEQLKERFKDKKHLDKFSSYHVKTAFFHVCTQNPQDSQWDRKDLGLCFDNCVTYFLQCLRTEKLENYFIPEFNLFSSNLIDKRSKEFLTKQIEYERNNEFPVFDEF
Procedure for in vivo: as §1

With `CC(C)C[C@@H]1NC(=O)[C@H](CCCNC(=N)N)NC(=O)[C@H](C(C)C)NC(=O)[C@@H]2CCCN2C(=O)[C@@H](Cc2ccccc2)NC(=O)[C@H](CC(C)C)NC(=O)[C@H](CCCNC(=N)N)NC(=O)[C@H](C(C)C)NC(=O)[C@H](C)NC(=O)[C@@H](Cc2ccccc2)NC1=O` [XQ2, Cyclo (LfAVRLfPVR)] (cyclo(L[dF]AVRL[dF]PVR)), the “puncta formation of EGFP-cGAS with ISD” value in data set [1] is reported as “markedly inhibited the puncta formation of EGFP-cGAS with ISD”. For the same compound, in the data set on THP1 cells (10 μM), the “production of IFN-β and CXCL10 upon HSV-1 infection” value is “significantly inhibited the production of IFN-β and CXCL10”. In the data set with THP1 cells (HSV-1 1×10^5 pfu 24 h, XQ2 10 μM), the “IFN-β protein, ELISA, Fig. 5a” value is 82.1785 and 88.212 and 94.6416. Further, the “CXCL10 protein, ELISA, Fig. 5b” value in the data set with THP1 cells (HSV-1 2×10^4 pfu 24 h, XQ2 10 μM) was 81.286 and 72.3045 and 81.612; in the data set with THP1 cells (HSV-1 5×10^4 pfu 24 h, XQ2 10 μM), 1196.79 and 1171.64 and 1198.54. The “DNA-induced liquid phase condensation of cGAS” value at hcGAS-FL and Cy3-ISD was “efficiently suppressed DNA-induced liquid phase condensation of cGAS in a dose-dependent manner”. Also, the “Droplets (%), Fig. S6b” value is 33.0922% and 37.8074% and 43.9421% on hcGAS-FL and Cy3-ISD (XQ2 10 μM); 10.262% and 16.2032% and 13.5624% on hcGAS-FL and Cy3-ISD (XQ2 20 μM); 8.642% and 8.102% and 4.321% at hcGAS-FL and Cy3-ISD (XQ2 40 μM). For the same compound, the “Droplets (%), Fig. 4e” value on hcGAS-FL and Cy3-ISD (30 min 37 °C, XQ2 10 μM) was 73.0692% and 66.6865% and 62.8824%; at hcGAS-FL and Cy3-ISD (XQ2 20 μM), 40.7983% and 55.7848% and 51.751%; on hcGAS-FL and Cy3-ISD (XQ2 40 μM), 25.4542% and 20.5523% and 21.4459%. Further, the “Droplets (%), Fig. S6d” value was 79.2214% and 80.5313% and 77.1189% on hcGAS-FL and Cy3-ISD (XQ2 10 μM); 68.3204% and 65.6495% and 68.2188% at hcGAS-FL and Cy3-ISD (XQ2 20 μM); 48.2853% and 49.5952% and 47.6049% on hcGAS-FL and Cy3-ISD (XQ2 40 μM). Further, the “HSV-1-induced luciferase reporter signal” value in data set [2] (10 μM) is “further confirmed in the reporter cell line THP1 Lucia ISG”. Further, the “luciferase activity, Fig. 5c” value in data set [2] (Ctl) is 1.148 and 1.262 and 1.5089; in data set [2] (HSV-1 1×10^4 pfu 24 h), 3.199 and 3.457 and 4.259; in data set [2] (HSV-1 2×10^4 pfu 24 h), 5.808 and 6.219 and 6.721; in data set [2] (HSV-1 5×10^4 pfu 24 h), 11.1309 and 12.5837 and 12.8036.
Broadly, the half-life is the time needed for the level to fall by half in the phase considered. Low values mean rapid decline, high ones slow decline. One may read the AUC(0-inf) as total exposure, with the tail of the curve extrapolated. Low readings indicate low exposure, high ones high exposure. By AUC(0-t) is commonly meant exposure summed from dosing to a finite time, without extrapolation to infinity. Low values mean less exposure, high ones more exposure. As usually defined, the Cmax is the highest concentration seen after dosing. The term MRT last denotes the average time that molecules of a dose stay in the body. By Tmax is commonly meant the time at which the peak concentration occurs. One may read the Vd as a proportionality between amount in the body and measured concentration, not a real space. As usually defined, the clearance is the rate of elimination divided by the concentration. Read a low clearance as inefficient removal. Compound `CC(C)C[C@@H]1NC(=O)[C@H](CCCNC(=N)N)NC(=O)[C@H](C(C)C)NC(=O)[C@@H]2CCCN2C(=O)[C@@H](Cc2ccccc2)NC(=O)[C@H](CC(C)C)NC(=O)[C@H](CCCNC(=N)N)NC(=O)[C@H]([C@@H](C)O)NC(=O)[C@H](C)NC(=O)[C@@H](Cc2ccccc2)NC1=O` [XQ2B] (cyclo([dF]ATRL[dF]PVRL)) gave a half-life in the data set “in vivo” of 1.1 h. In the data set “in vivo” (Conc (ng/ml), Fig. S11a), this compound returned a level at 0.083 h of 101 µg/mL, a level at 0.25 h of 63.6 µg/mL and a level at 0.5 h of 50.4 µg/mL. Further, in data set [3] (Fig. S9d, Trex1 knockdown (siTrex1 +) L929 cells, XQ2B +, individual replicates, siTrex1 alone 5.56-7.04), the “Relative mRNA level Cxcl10” value is 1.176 and 1.276 and 1.118. In addition, in data set [3] (Fig. S9d, Trex1 knockdown (siTrex1 +) L929 cells, XQ2B +, individual replicates, siTrex1 alone 23.9-27.1), the “Relative mRNA level Ifnb1” value is 15.103 and 18.4861 and 15.5105. In data set [3] (L929, 20 μM, 24 h), the “expression of Ifnb1, Cxcl10 with Trex1-siRNA” value is “markedly inhibited the expression of these genes in mouse L929 and human THP1 cells with Trex1-siRNA”. In data set [4], this compound showed an area under the curve AUC(0-inf) of 157 µg·h/mL, an AUC(0-t) of 135 µg·h/mL, a Cmax of 105 µg/mL and an MRT last of 1.2 h. Moreover, in data set [4], the Tmax stood at 4.98 min, the Vd worked out at 0.095 L/kg and the clearance was 1.18 mL/min/kg.

The values above are taken from publication PMC10545747, “Development of cyclopeptide inhibitors of cGAS targeting protein-DNA interaction and phase separation” (Nature Communications, 2023).
